Measured values published in the supplement of paper PMC10307832.

Assays:
Assay in all cases: relative viability (nuclei count vs DMSO), 5 days (fraction); higher = more cells survive
[1] = compound: CN1CCN(CC1)C2=CC(=C(C=C2)NC3=NC=C4C(=N3)N(C5=CC=CC=C5C(=O)N4C)C)OC [XMD8-85] + C[C@@H](Oc1cc(-c2cnn(C3CCNCC3)c2)cnc1N)c1c(Cl)ccc(F)c1Cl [Crizotinib] (partner 1 µM)
Procedure, shortened: (§1)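 Relative viability is defined as nuclei in treated wells over nuclei in vehicle wells. Duplicate plates were run and medians reported. Lung cancer cell lines in 1536-well plates were dosed by pin tool one day after seeding, with one drug or with a fixed anchor-drug dose plus five library-drug doses (not always all listed) in √10 steps, and nuclei were counted after 5 days.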

[2] = compound: CN1CCN(CC1)C2=CC(=C(C=C2)NC3=NC=C4C(=N3)N(C5=CC=CC=C5C(=O)N4C)C)OC [XMD8-85] + CC(C)C[C@H](NC(=O)[C@H](Cc1ccccc1)NC(=O)c1cnccn1)B(O)O [Bortezomib] (partner 0.002 µM)
Procedure, shortened: as §1

[3] = compound: O=C(O)C(Cc1ccccc1[N+](=O)[O-])=NNc1nc(-c2ccc(Cl)c(Cl)c2)cs1 (mixture of isomers) [4EGI-1] + NC(=O)Nc1cc(-c2cccc(F)c2)sc1C(=O)N[C@H]1CCCNC1 [AZD7762] (partner 0.2 µM)
Procedure, shortened: as §1

[4] = compound: O=C(O)C(Cc1ccccc1[N+](=O)[O-])=NNc1nc(-c2ccc(Cl)c(Cl)c2)cs1 (mixture of isomers) [4EGI-1] + CC(C)C[C@H](NC(=O)[C@H](Cc1ccccc1)NC(=O)c1cnccn1)B(O)O [Bortezomib] (partner 0.002 µM)
Procedure, shortened: as §1

Cell Line	relative viability ([1]; first compound 0.08 µM)	relative viability ([1]; first compound 0.253 µM)	relative viability ([1]; first compound 2.53 µM)	relative viability ([1]; first compound 8 µM)	relative viability ([2]; first compound 0.08 µM)	relative viability ([2]; first compound 0.253 µM)	relative viability ([2]; first compound 0.8 µM)	relative viability ([2]; first compound 2.53 µM)	relative viability ([2]; first compound 8 µM)	relative viability ([3]; first compound 0.5 µM)	relative viability ([3]; first compound 1.581 µM)	relative viability ([3]; first compound 5 µM)	relative viability ([3]; first compound 15.81 µM)	relative viability ([3]; first compound 50 µM)	relative viability ([4]; first compound 0.5 µM)	relative viability ([4]; first compound 1.581 µM)	relative viability ([4]; first compound 5 µM)	relative viability ([4]; first compound 15.81 µM)	relative viability ([4]; first compound 50 µM)	relative viability ([1]; first compound 0.8 µM)
BEN	0.744	0.865	0.608	0.447	0.795	0.808	0.839	0.549	0.416	0.76	0.657	0.689	0.593	0.382	0.848	1.22	0.903	0.754	0.604	
SK-MES-1	0.964	1.03	0.923	0.61																0.94
IA-LM	0.678	0.889		0.127	0.814		0.836		0.163						0.873	0.707	0.552	0.144	0.0723	0.91
CAL-12T	0.357	0.664	0.474	0.15	0.979	0.95	0.864	0.964	0.584	0.643		0.649	0.518	0.366			1.1	0.951	0.403	0.779
ABC-1	1.3	0.882	0.994	0.49	0.246	0.254	0.302	0.252	0.22	0.758		0.774	0.506	0.516	0.344	0.291	0.319	0.285	0.214	1.41
LCLC-97TM1	0.321	0.569	0.456	0.333	0.473	0.357	0.841	0.72	0.204	0.242		0.362	0.41	0.0881	0.589		0.942	0.271	0.277	0.558
PC-14	0.867	0.874	0.972	0.722	0.794	0.964	0.821	0.935	0.596	0.342		0.367	0.117	0.0594	1.06		0.839		0.859	0.834
NCI-H23	0.4	0.434	0.387	0.217	0.977	0.836	1.09	1.21	0.853	0.372		0.27	0.23	0.192	1.16		1.18	1.03	0.656	0.472
NCI-H727	0.78	0.777	0.595	0.358	0.64	0.727	1.34	1.3	0.452	0.631	0.631	0.511	0.519	0.478	0.985	0.874	0.652	0.722	0.442	0.755
A549	0.704	0.711	0.855	0.426																0.872
COR-L 105		0.807	0.455	0.255	0.759	0.628	0.699	0.677	0.309						0.876	0.592	0.725	0.424	0.252	0.793
NCI-H650	0.6	0.603	0.57	0.345	0.778	0.855	0.854	0.858	0.27	1.09		0.978	0.912	0.318	0.905		0.753	0.899	0.499	0.712
NCI-H1975	1.08	0.827	0.937	0.352	0.443	0.36	0.378	0.297	0.222	0.837	0.539	0.717	0.67	0.557	0.475	0.393	0.399	0.36	0.348	1.07
NCI-H2023	0.578	0.627	0.544	0.287	0.881	0.992	1.07	1.13	0.575						1.53		1.23	0.309	0.101	0.705
EMC-BAC-2	0.748		0.662	0.72	1.06	1.05	1.1	1.16	0.965	1.36		1.17	1	0.599	1.17	1.02	1.13	1.05	0.88	0.794
LK-2	0.232	0.244	0.226	0.262						0.543		0.451	0.344	0.177						0.201
EPLC-272H		0.678	0.947	0.691		0.831	0.928	0.814	0.571	0.264		0.239	0.151	0.0667	1.01	0.686	0.898	0.618	0.497	1.03
HCC-366	0.388		0.481	0.136	0.91	0.815	1.08	1.1	1.09	0.33	0.23	0.293	0.174	0.0904	1.12	0.841	1.04	1.09	0.19	0.586
NCI-H1793										0.766	0.41	0.809	0.276	0.218						
NCI-H3122	0.261	0.258	0.329	0.331	1.11	1.02	1.05	1.05	0.915	1.01	0.972	0.957	0.926	0.48	1.07	0.975	0.918	1.06	0.352	0.274
NCI-H596	0.991	0.906	0.789	0.781	0.838	0.903	1.22	1.09	0.899	1.07	1.21	1.31	0.769	0.279	1	0.932	1.05	0.986	0.789	0.875
NCI-H2087	0.821	0.857	0.994	0.674	0.827	0.869		1.11	0.729	1.42	1.48	1.34	1.06	0.391	1.04	0.782	0.882	0.726	0.335	0.994
NCI-H2342										0.441	0.477	0.501	0.559	0.308						

Cell Line	relative viability ([1]; first compound 0.08 µM)	relative viability ([1]; first compound 0.253 µM)	relative viability ([1]; first compound 2.53 µM)	relative viability ([1]; first compound 8 µM)	relative viability ([2]; first compound 0.08 µM)	relative viability ([2]; first compound 0.253 µM)	relative viability ([2]; first compound 0.8 µM)	relative viability ([2]; first compound 2.53 µM)	relative viability ([2]; first compound 8 µM)	relative viability ([3]; first compound 0.5 µM)	relative viability ([3]; first compound 1.581 µM)	relative viability ([3]; first compound 5 µM)	relative viability ([3]; first compound 15.81 µM)	relative viability ([3]; first compound 50 µM)	relative viability ([4]; first compound 0.5 µM)	relative viability ([4]; first compound 1.581 µM)	relative viability ([4]; first compound 5 µM)	relative viability ([4]; first compound 15.81 µM)	relative viability ([4]; first compound 50 µM)	relative viability ([1]; first compound 0.8 µM)
NCI-H1563	0.931	0.812	0.841	0.757	0.848	0.855		0.839	0.645						0.895	0.728	0.847	0.818	0.468	0.72
NCI-H1395										0.44		0.393	0.344	0.374						
NCI-H460	0.996	0.83	0.619	0.0598	0.924	0.999	1.2	0.956	0.75	0.572		0.705	0.24	0.302	1.15		1.08	0.913	0.0451	1.19
NCI-H2228	0.454	0.442	0.528	0.26	1.15	0.872	0.924	1.04	0.582						1.25	0.952	1.05	0.599	0.252	0.521
HOP-62	1.04	1.07	0.835	0.724	0.646	0.698	0.863	0.719	0.681	0.878	0.408	0.54	0.454	0.101	1.32		1.03	1.06	0.45	0.951
SK-LU-1	0.568	0.892	1.12	0.653	0.93	0.926		1.42	0.84						1.18		1.36	1.53	0.913	1.07
Calu-6	0.689	0.607		0.396	1.16	0.973	1.04	1.05	0.78						0.982	0.877	1.15	0.989	0.33	0.894
NCI-H1299	0.983	0.962	0.928	0.601	1.07	1.09	1.02	0.996	0.781						1.02	1.04	0.993	0.997	1.02	1.03
NCI-H1650	1.01	0.773	0.715	0.256	0.26	0.197	0.192	0.173	0.179						0.197		0.219	0.216	0.189	1.12
COR-L23	0.739	0.561	0.631	0.299	1.05	0.962	1.17	0.957	0.691						0.983	0.651	1.09	0.808	0.19	0.723
NCI-H2170	1.18	1.01	1.28	0.966						0.923	0.806	1.03	0.697	0.244						1.27
EBC-1	0.197	0.189	0.186	0.114	0.551	0.472	0.434	0.297	0.329						0.668	0.547	0.704	0.52	0.181	0.184
UMC-11	0.656	0.497	0.459	0.237	0.538	0.577	0.903	0.852	0.373						1.04	0.872	0.669	0.679	0.255	0.638
NCI-H661	1.03	1.16	1.1	0.854	0.732	0.927		0.802	0.728						1.13	0.752	0.877	0.55	0.464	0.905
NCI-H2009	1.03	0.981	1.06	0.395	0.98	0.931	1.16	0.988	0.352						1.2	0.954	1.19	0.944	0.186	1.1
NCI-H1648										0.662	0.674	0.707	0.602	0.517						
NCI-H520	0.796	0.572	0.673	0.324	0.491	0.51	0.772	0.507	0.205						0.838	0.521	0.999	0.536	0.108	0.914
NCI-H358	0.674	0.465	0.506	0.248						0.632		0.582	0.275	0.218						0.816
SW 900										0.833	0.583	0.574	0.377	0.173						
NCI-H1944	1.02	0.999	1.35	0.979						0.626		0.604	0.453	0.212						1.3
NCI-H522										0.947	0.71	0.985	0.874	0.783						
SW 1573	0.817	0.705	0.867	0.456	0.881	1.34	1.02	1.03	0.639						1.4	1.06	0.972	0.948	0.822	0.822
